The structures appear in SMILES notation. “Also recorded” adds a separate entry of the source. Structures can show the parent of a compound that is named as a salt. Where two headings read alike, the source gives them in different places.

Assay [1] relates to HeLa human cervical carcinoma cells. The assay is described as follows: High-content analysis of mitotic arrest in HeLa cells. It counts as cell-based. The settings on record: for Microtubule Density MDEC (minimum detectable effective concentration) / Mitotic Index MDEC (percentage of phosphohistone H3-positive cells) / Nuclear Condensation MDEC (minimum detectable effective concentration) / EC50: 20 hours treatment, average of four experiments ± SD; for EC50: Homo sapiens, read-out: Cell Density EC50; for activity in high-content analysis of mitotic arrest (in words): all endpoints measured. How it is done: The effects of tubulysin analogs on mitotic arrest and cellular microtubules were studied. HeLa human cervical carcinoma cells (10,000 per well) were plated in collagen-1 coated 384-well microplates and were treated with vehicle (DMSO) or ten two-fold concentration gradients of test agents within 4-6 hours of seeding. Cells were incubated for 20 hours at 37° C., fixed with formaldehyde, and labeled with 10 μg/mL Hoechst 33342 in Hank's balanced salt solution (HBSS). Cells were permeabilized with 0.5% (w/w) Triton X-100 for 5 min at room temperature and incubated with a primary antibody cocktail consisting of an HBSS solution containing rabbit polyclonal anti-phosphohistone H3 (Ser10, 1:500, Upstate), and mouse monoclonal anti-α-tubulin (1:3000, Sigma), followed by a mixture of FITC-labeled donkey anti-mouse IgG (1:500) and Cy3-labeled donkey anti-rabbit IgG (1:500). Cells were rinsed once with HBSS and stored at 4° C. in HBSS until analysis.
Microplates were analyzed with an ArrayScanII instrument (Cellomics, Pittsburgh, Pa.) using the Target Activation Bioapplication (Cellomics, Inc.). Within the application, 1,000 individual cells in each well were imaged at three different wavelengths, using an Omega XF93 filter set at excitation/emission wavelengths of 350/461 nm (Hoechst), 494/519 nm (FITC), and 556/573 nm (Cy3). The following parameters were used for data analysis: average nuclear intensity, nuclei per field, average nuclear FITC intensity, and average nuclear Cy3 intensity. A nuclear mask was generated from Hoechst 33342-stained nuclei. Microtubule density and histone H3 phosphorylation were measured in the FITC and Cy3 channel, respectively. Microtubule density was defined as the average green (FITC) pixel intensity in an area defined by the nuclear mask. For determination of mitotic index and nuclear condensation, thresholds for Hoechst 33342 and phosphohistone-H3 intensities were defined as the average Hoechst 33342 or Cy3 intensity plus one standard deviation from twenty-eight vehicle-treated wells placed in the center of the microplate.
Cells were classified as positive if their average Hoechst 33342 or Cy3 intensity exceeded this threshold. To illustrate visually the effects of test agents on cellular microtubules and mitotic arrest, the identical 384-well plates then were used to acquire higher resolution images of selected wells.
Asynchronously growing HeLa cells were treated for 20 hours with each compound in collagen-coated 384 well microplates, fixed, and incubated with primary antibodies for tubulin and the mitotic marker protein phosphohistone H3, followed by FITC and Cy3-conjugated secondary antibodies, respectively. Cells were detected by nuclear counterstaining with Hoechst 33342, which also provided information about chromatin condensation and cell density as markers of cell death.

The subject of assay [2] is T98G human glioblastoma cell line. Put plainly: Antiproliferative assay (MTS), GI50 in T98G cells. It counts as cell-based. The settings on record: for GI50: Homo sapiens, T98G. From the text:
General methods are known for determining the effect of compounds on proliferation of cells. See, e.g., Zhu et al., J. Med. Chem., 2006, 49, 2063-2076. Cells can be selected by one of skill in the art and can be maintained as exponentially growing cultures in a suitable medium (e.g., RPMI 1640 medium) with adjuvents, including FBS, penicillin, and glutamine, provided at levels known to those skilled in this field. For human cancer cells, e.g., human glioblastoma cell line T98G, the cells can be trypsinized and washed prior to formation of a cell suspension in appropriate buffer and plating of the cell suspension. Typical microtiter plate amounts can be 500-2000 cells/well. The cells can be allowed to attach and grow for a defined time period (e.g., 36 hours, 72 hours, 96 hours, or other defined period) before treatment with either vehicle (e.g., dimethylsulfoxide) or test agent (e.g., compound of the invention) followed by an additional defined time period (e.g., 36 hrs, 72 hrs, 96 hrs, and the like). At the end of the additional defined time period, viability of the cells can be determined by any of a variety of methods known in the art, including assays employing MTS (3-(4,5-dimethylthiazol-2-yl)-5-(3-carboxymethoxyphenyl)-2-(4-sulfophenyl)-2H-tetrazolium), as described by -Cory et al., Cancer Commun., 1991, 3, 207-212. […] Replicates are typically assayed to allow determination of appropriate statistical properties as known in the art.
Compounds of the invention with structures of Formulae Xa, XVb, and XVa were assayed for inhibition of growth of the T98G human glioblastoma cell line (Table II).
Human glioblastoma T98G cells (American Type Culture Collection, Manassas, Va.) were maintained as exponentially growing cultures in an RPMI 1640 medium with 10% FBS, 1% penicillin and 1% glutamine. The cells were seeded into 96-well plates and allowed to attach and grow for 48 hours. One plate of cells was used for a time zero cell number determination (N=16), and cells in other plates were treated for 72 hours or 96 hours with either DMSO (1% v/v; N=8 for each plate) or a range of concentrations, in quadruplicate, of test agents. Cell number was determined spectrophotometrically at 490 nm minus absorbance at 630 nm after exposure to 3-(4,5-dimethylthiazol-2-yl)-5-(3-carboxymethoxyphenyl)-2-(4-sulfophenyl)-2H-tetrazolium (MTS) and N-methylphenazine methylsulfate. The fifty percent growth inhibitory concentrations (GI50) of test agents were calculated from the spectrophotometrically determined growth of the control cells over the 72- or 96-hour period.

Where [3] appears, read: 72 h, read-out: GI50 at (72 h) in T98 glioblastoma cells.
The mark [4] stands for this setting: 72 h, read-out: GI50 in T98G cell, 72 h.
The mark [5] stands for this setting: 96 h, read-out: GI50 at 96 h in T98 glioblastoma cells.
Setting [6] is: 96 h, read-out: GI50 in T98G cell, 96 h.

Broadly, the EC50 is the concentration giving half of the maximal effect. In general, GI50 refers to the concentration giving 50% growth inhibition. With `CCC(C)[C@H](NC(=O)[C@H]1CCCCN1C)C(=O)N(C)[C@H](C[C@@H](OC(C)=O)c1nc(C(=O)N[C@@H](Cc2ccccc2)C[C@H](C)C(=O)O)cs1)C(C)C` (some centres unmarked) [WZY-III-63C, N^14-Desacetoxytubulysin H trifluoroacetic acid salt], in assay [1], the “Microtubule Density MDEC (minimum detectable effective concentration)” value (shortened to “Microtubule Density MDEC”) came to 0.16 ± 0.05 nM. Besides, the “Mitotic Index MDEC (percentage of phosphohistone H3-positive cells)” value in assay [1] was determined as 0.10 ± 0.02 nM. For the same compound, the “Nuclear Condensation MDEC (minimum detectable effective concentration)” value (“Nuclear Condensation MDEC” below) in assay [1] came to 0.13 ± 0.04 nM. In assay [1], the EC50 is 0.00037 ± 9e-05 µM. Moreover, in assay [1] (trifluoroacetic acid salt), the “activity in high-content analysis of mitotic arrest (in words)” value (shortened to “activity in high-content analysis”) is “active in the picomolar range; also recorded: almost two orders of magnitude more potent than vincristine or paclitaxel; also recorded: activity in the picomolar range”. Also, the “potency relative to paclitaxel, vincristine, or WZY-III-69A” value in assay [1] (all of the endpoints measured) was approximately 50 fold. Besides, the “loss in antiproliferative GI50 compared to dolastatin 10 and tubulysins A or D” value in assay [2] is on record as 1-2 orders of magnitude. The GI50 in assay [2] (72 h) was 0.43 to 4.4 µM; in assay [2] (setting [3]), 0.0044 µM; in assay [2] (setting [4]) it was 0.0044 ± 0.011 µM; in assay [2] (96 h) it was 0.35 to 16 µM; in assay [2] (setting [5]), 0.0016 ± 0.0008 µM; in assay [2] (setting [6]) it was 0.0016 ± 0.0008 µM.

Consider `CCC(C)[C@H](NC(=O)CN(C)C)C(=O)N(C)[C@H](C[C@H](OC(C)=O)c1nc(C(=O)N[C@@H](Cc2ccccc2)C[C@H](C)C(=O)O)cs1)C(C)C` (stereo partly drawn) [WZY-III-64A, (2S,4R)-4-(2-((6S,9R,11S)-6-sec-Butyl-9-isopropyl-2,8-dimethyl-4,7,13-trioxo-12-oxa-2,5,8-triazatetradecan-11-yl)thiazole-4-carboxamido)-2-methyl-5-phenylpentanoic acid], for which the “Microtubule Density MDEC” value in assay [1] came to 56.6 ± 30.9 nM. In addition, the “Mitotic Index MDEC (percentage of phosphohistone H3-positive cells)” value in assay [1] is recorded as 23.9 ± 5.8 nM. Also, the “Nuclear Condensation MDEC” value in assay [1] is listed as 32.4 ± 8.6 nM. The EC50 in assay [1] came to 0.0957 ± 0.0208 µM. Further, the “activity in high-content analysis” value in assay [1] is given as “about five-fold less active”. The GI50 is 0.43 to 4.4 µM in assay [2] (72 h); 0.59 µM in assay [2] (setting [3]); 0.59 ± 1 µM in assay [2] (setting [4]); 0.35 to 16 µM in assay [2] (96 h); 0.4 ± 0.03 µM in assay [2] (setting [5]); 0.4 ± 0.03 µM in assay [2] (setting [6]).

With `CCC(C)[C@H](NC(=O)CN(C)C)C(=O)N(C)[C@H](C[C@@H](OC(C)=O)c1nc(C(=O)N[C@@H](Cc2ccccc2)C[C@H](C)C(=O)O)cs1)C(C)C` (stereo partly drawn) [WZY-III-69A, (2S,4R)-4-(2-((6S,9R,11R)-6-sec-Butyl-9-iso-propyl-2,8-dimethyl-4,7,13-trioxo-12-oxa-2,5,8-triazatetradecan-11-yl)thiazole-4-carboxamido)-2-methyl-5-phenylpentanoic acid], the “Microtubule Density MDEC” value in assay [1] is 15.1 ± 11.1 nM. In addition, the “Mitotic Index MDEC (percentage of phosphohistone H3-positive cells)” value in assay [1] was 2.5 ± 0.4 nM. Moreover, in assay [1], the “Nuclear Condensation MDEC” value turned out to be 12.4 ± 10.2 nM. Moreover, in assay [1], the EC50 turned out to be 0.0175 ± 0.0066 µM. Also, the “activity in high-content analysis” value in assay [1] is listed as “as active as paclitaxel or vincristine”. Also, the GI50 was 0.43 to 4.4 µM in assay [2] (72 h); 0.43 µM in assay [2] (setting [3]); 0.43 ± 0.13 µM in assay [2] (setting [4]); 0.35 to 16 µM in assay [2] (96 h); 0.35 ± 0.04 µM in assay [2] (setting [5]); 0.35 ± 0.04 µM in assay [2] (setting [6]).

Source of the values: patent publication US20100047841A1, “SYNTHESIS OF DESACETOXYTUBULYSIN H AND ANALOGS THEREOF” (University of Pittsburgh-of the Commonwealth System of …, priority 2007, published 2010).
